Measurements published in ChEMBL document CHEMBL5303304, “EUbOPEN Chemogenomics Library - IncuCyte” (2023).

How the values were obtained:
Type in all cases: toxicity, cell-based
HEK-293T = assay: Incucyte cell viability with HEK293T; details: human, 10 µM, compound concentration 10 uM
U2OS = assay: Incucyte cell viability with U2OS; details: human, 10 µM, compound concentration 10 uM
Fibroblast = assay: Incucyte cell viability with human fibroblast; details: 10 µM, compound concentration 10 uM
Further: unitless GR value; below 1 slowed growth and below 0 cell loss.

Cc1cc(SCc2sc(-c3ccc(C(F)(F)F)cc3)nc2C)ccc1OCC(=O)O [GW501516]
Growth Rate (HEK-293T; 0 h, replicate number 2): -0.84 | Growth Rate (HEK-293T; 6 h, replicate number 1): 0.99 | Growth Rate (HEK-293T; 6 h, replicate number 2): 0.71 | Growth Rate (HEK-293T; 12 h, replicate number 2): 0.95 | Growth Rate (HEK-293T; 18 h, replicate number 1): 1 | Growth Rate (HEK-293T; 18 h, replicate number 2): 0.93 | Growth Rate (HEK-293T; 24 h, replicate number 1): 0.98 | Growth Rate (HEK-293T; 24 h, replicate number 2): 0.83 | Growth Rate (U2OS; 0 h, replicate number 2): 0.72 | Growth Rate (U2OS; 6 h, replicate number 2): 0.95 | Growth Rate (U2OS; 12 h, replicate number 2): 0.77 | Growth Rate (U2OS; 18 h, replicate number 2): 0.92 | Growth Rate (U2OS; 24 h, replicate number 2): 0.98 | Growth Rate (Fibroblast; 0 h, replicate number 2): 0.89 | Growth Rate (Fibroblast; 6 h, replicate number 2): 0.42 | Growth Rate (Fibroblast; 12 h, replicate number 1): 0.83 | Growth Rate (Fibroblast; 12 h, replicate number 2): 0.31 | Growth Rate (Fibroblast; 18 h, replicate number 2): 0.73 | Growth Rate (Fibroblast; 24 h, replicate number 2): 0.83

CCN1C(=O)N(c2c(F)c(OC)cc(OC)c2F)Cc2cnc3[nH]c(CN4CCOCC4)cc3c21 [PEMIGATINIB]
Growth Rate (HEK-293T; 0 h, replicate number 1): 0 | Growth Rate (HEK-293T; 6 h, replicate number 2): 0.25 | Growth Rate (HEK-293T; 12 h, replicate number 1): 0.76 | Growth Rate (HEK-293T; 12 h, replicate number 2): 0.59 | Growth Rate (HEK-293T; 18 h, replicate number 1): 0.68 | Growth Rate (HEK-293T; 18 h, replicate number 2): 0.33 | Growth Rate (HEK-293T; 24 h, replicate number 1): 0.57 | Growth Rate (HEK-293T; 24 h, replicate number 2): 0.3 | Growth Rate (U2OS; 0 h, replicate number 1): -0.31 | Growth Rate (U2OS; 0 h, replicate number 2): -0.02 | Growth Rate (U2OS; 6 h, replicate number 1): 0.58 | Growth Rate (U2OS; 6 h, replicate number 2): -0.01 | Growth Rate (U2OS; 12 h, replicate number 1): -0.36 | Growth Rate (U2OS; 12 h, replicate number 2): 0.07 | Growth Rate (U2OS; 18 h, replicate number 1): 0.5 | Growth Rate (U2OS; 18 h, replicate number 2): 0.2 | Growth Rate (U2OS; 24 h, replicate number 1): 0.62 | Growth Rate (U2OS; 24 h, replicate number 2): 0.19 | Growth Rate (Fibroblast; 0 h, replicate number 2): 0.11 | Growth Rate (Fibroblast; 6 h, replicate number 1): 0.04 | Growth Rate (Fibroblast; 6 h, replicate number 2): 0.12 | Growth Rate (Fibroblast; 12 h, replicate number 1): 0.42 | Growth Rate (Fibroblast; 12 h, replicate number 2): 0.45 | Growth Rate (Fibroblast; 18 h, replicate number 1): 0.23 | Growth Rate (Fibroblast; 18 h, replicate number 2): 0.53 | Growth Rate (Fibroblast; 24 h, replicate number 1): 0.19 | Growth Rate (Fibroblast; 24 h, replicate number 2): 0.49

CN1C2CCCC1CC(Nc1ccccc1Br)C2 (configuration not stated)
Growth Rate (HEK-293T; 0 h, replicate number 1): 0.87 | Growth Rate (HEK-293T; 6 h, replicate number 2): 0.99 | Growth Rate (HEK-293T; 24 h, replicate number 2): 0.99 | Growth Rate (U2OS; 0 h, replicate number 2): -0.9 | Growth Rate (Fibroblast; 0 h, replicate number 1): 0.86 | Growth Rate (Fibroblast; 0 h, replicate number 2): 0.67 | Growth Rate (Fibroblast; 6 h, replicate number 1): -0.98 | Growth Rate (Fibroblast; 6 h, replicate number 2): -0.45 | Growth Rate (Fibroblast; 12 h, replicate number 1): 0.42 | Growth Rate (Fibroblast; 12 h, replicate number 2): 0.88 | Growth Rate (Fibroblast; 18 h, replicate number 2): 0.95 | Growth Rate (Fibroblast; 24 h, replicate number 2): 0.92

CC(C)(C)C(=O)NCc1ccc(Cl)c(C(=O)Nc2ncc[nH]2)c1 [LY-3031207]
Growth Rate (HEK-293T; 0 h, replicate number 1): 0.13 | Growth Rate (HEK-293T; 0 h, replicate number 2): -0.13 | Growth Rate (U2OS; 0 h, replicate number 1): 0.65 | Growth Rate (U2OS; 12 h, replicate number 2): 0.95 | Growth Rate (U2OS; 18 h, replicate number 2): 0.97 | Growth Rate (U2OS; 24 h, replicate number 2): 0.94 | Growth Rate (Fibroblast; 0 h, replicate number 2): 0.1 | Growth Rate (Fibroblast; 6 h, replicate number 1): 0.85 | Growth Rate (Fibroblast; 6 h, replicate number 2): -0.3 | Growth Rate (Fibroblast; 12 h, replicate number 2): 0.86 | Growth Rate (Fibroblast; 24 h, replicate number 1): 0.89

Cc1c(N2CCNCC2)nc2ccc(Br)cc2c1C(=O)NC[C@H](CCC(=O)O)c1ccccc1Cl [BAY-403]
Growth Rate (HEK-293T; 0 h, replicate number 2): -0.32 | Growth Rate (HEK-293T; 6 h, replicate number 1): 0.58 | Growth Rate (HEK-293T; 6 h, replicate number 2): 0.8 | Growth Rate (HEK-293T; 12 h, replicate number 2): 0.81 | Growth Rate (HEK-293T; 18 h, replicate number 1): 0.76 | Growth Rate (HEK-293T; 18 h, replicate number 2): 0.9 | Growth Rate (HEK-293T; 24 h, replicate number 1): 0.88 | Growth Rate (U2OS; 0 h, replicate number 1): -0.04 | Growth Rate (U2OS; 6 h, replicate number 1): 0.58 | Growth Rate (U2OS; 6 h, replicate number 2): 0.52 | Growth Rate (U2OS; 12 h, replicate number 1): 0.84 | Growth Rate (U2OS; 18 h, replicate number 1): 0.91 | Growth Rate (U2OS; 24 h, replicate number 1): 0.95 | Growth Rate (Fibroblast; 0 h, replicate number 1): 0.47 | Growth Rate (Fibroblast; 0 h, replicate number 2): 0.9 | Growth Rate (Fibroblast; 6 h, replicate number 2): 0.04 | Growth Rate (Fibroblast; 12 h, replicate number 2): 0.12 | Growth Rate (Fibroblast; 18 h, replicate number 2): 0.51 | Growth Rate (Fibroblast; 24 h, replicate number 2): 0.7

C[C@H](C[C@H](N)C(=O)O)C(=O)O [2S,4R-4-METHYLGLUTAMATE]
Growth Rate (HEK-293T; 0 h, replicate number 2): 0.9 | Growth Rate (U2OS; 6 h, replicate number 2): 0.65 | Growth Rate (U2OS; 12 h, replicate number 2): 0.89 | Growth Rate (U2OS; 18 h, replicate number 2): 0.82 | Growth Rate (U2OS; 24 h, replicate number 2): 0.94 | Growth Rate (Fibroblast; 0 h, replicate number 2): -0.67 | Growth Rate (Fibroblast; 6 h, replicate number 2): 0.92 | Growth Rate (Fibroblast; 12 h, replicate number 2): 0.66 | Growth Rate (Fibroblast; 24 h, replicate number 1): 0.42 | Growth Rate (Fibroblast; 24 h, replicate number 2): 0.97

CCCCC(C)(O)C/C=C/[C@H]1[C@H](O)CC(=O)[C@@H]1CCCCCCC(=O)O (some centres not stated) [MISOPROSTOL ACID]
Growth Rate (HEK-293T; 0 h, replicate number 1): -0.42 | Growth Rate (HEK-293T; 0 h, replicate number 2): -0.77 | Growth Rate (U2OS; 0 h, replicate number 2): 0.49 | Growth Rate (U2OS; 12 h, replicate number 2): 0.94 | Growth Rate (Fibroblast; 0 h, replicate number 1): -1 | Growth Rate (Fibroblast; 0 h, replicate number 2): -0.92 | Growth Rate (Fibroblast; 12 h, replicate number 1): 0.98 | Growth Rate (Fibroblast; 18 h, replicate number 1): 0.86 | Growth Rate (Fibroblast; 24 h, replicate number 2): 0.97

N#CC[C@H](C1CCCC1)n1cc(-c2ncnc3[nH]ccc23)cn1 [RUXOLITINIB]
Growth Rate (HEK-293T; 0 h, replicate number 1): -0.91 | Growth Rate (HEK-293T; 0 h, replicate number 2): -0.15 | Growth Rate (HEK-293T; 6 h, replicate number 1): 0.27 | Growth Rate (HEK-293T; 12 h, replicate number 1): 0.86 | Growth Rate (U2OS; 0 h, replicate number 1): -1 | Growth Rate (Fibroblast; 0 h, replicate number 1): -1

CC(C=CC1=C(C)CCCC1(C)C)=CC=CC(C)=CC(=O)O
Growth Rate (HEK-293T; 0 h, replicate number 1): 0.11 | Growth Rate (HEK-293T; 0 h, replicate number 2): -0.77 | Growth Rate (HEK-293T; 6 h, replicate number 2): 0.82 | Growth Rate (HEK-293T; 12 h, replicate number 2): 0.99 | Growth Rate (HEK-293T; 18 h, replicate number 1): 0.94 | Growth Rate (HEK-293T; 18 h, replicate number 2): 0.73 | Growth Rate (HEK-293T; 24 h, replicate number 1): 0.95 | Growth Rate (HEK-293T; 24 h, replicate number 2): 0.58 | Growth Rate (U2OS; 0 h, replicate number 1): 0.58 | Growth Rate (U2OS; 0 h, replicate number 2): 0.8 | Growth Rate (U2OS; 6 h, replicate number 1): 0.77 | Growth Rate (U2OS; 6 h, replicate number 2): 0.93 | Growth Rate (U2OS; 12 h, replicate number 1): 0.3 | Growth Rate (U2OS; 18 h, replicate number 1): 0.67 | Growth Rate (U2OS; 24 h, replicate number 1): 0.87 | Growth Rate (U2OS; 24 h, replicate number 2): 0.99 | Growth Rate (Fibroblast; 0 h, replicate number 2): 0.82 | Growth Rate (Fibroblast; 6 h, replicate number 2): 0.99 | Growth Rate (Fibroblast; 12 h, replicate number 2): 0.99
